Source: paper doi:10.1101/2023.10.20.563248v1 (biorxiv, 2023)

Tests used:
Details in all cases: 1 µM; inhibitor
EPHB4 = EPHB4 (Homo sapiens, UniProt P54760)
KIT = KIT (Homo sapiens, UniProt P10721)
TTK = TTK (Homo sapiens, UniProt P33981)
FES = FES (Homo sapiens, UniProt P07332)
DAPK2 = DAPK2 (Homo sapiens, UniProt Q9UIK4)
MKK4 = MKK4 (Homo sapiens, UniProt P45985)
AXL = AXL (Homo sapiens, UniProt P30530)
CLK2 = CLK2 (Homo sapiens, UniProt P49760)
GRK5 = GRK5 (Homo sapiens, UniProt P34947)
BMPR1B = BMPR1B (Homo sapiens, UniProt O00238)
ACVR1 = ACVR1 (Homo sapiens, UniProt Q04771)
RPS6KB1 = RPS6KB1 (Homo sapiens, UniProt P23443)
PAK3 = PAK3 (Homo sapiens, UniProt O75914)
ACK1 = ACK1 (Homo sapiens, UniProt Q07912)
ERK7 = ERK7 (Homo sapiens, UniProt Q8TD08)
MAP4K4 = MAP4K4 (Homo sapiens, UniProt O95819)
CLK3 = CLK3 (Homo sapiens, UniProt P49761)
ASK1 = ASK1 (Homo sapiens, UniProt Q99683)
MAP4K5 = MAP4K5 (Homo sapiens, UniProt Q9Y4K4)
EPHA1 = EPHA1 (Homo sapiens, UniProt P21709)
MAP3K9 = MAP3K9 (Homo sapiens, UniProt P80192)
EPHB1 = EPHB1 (Homo sapiens, UniProt P54762)
Chain of EPHB1 (P54762 whole entry): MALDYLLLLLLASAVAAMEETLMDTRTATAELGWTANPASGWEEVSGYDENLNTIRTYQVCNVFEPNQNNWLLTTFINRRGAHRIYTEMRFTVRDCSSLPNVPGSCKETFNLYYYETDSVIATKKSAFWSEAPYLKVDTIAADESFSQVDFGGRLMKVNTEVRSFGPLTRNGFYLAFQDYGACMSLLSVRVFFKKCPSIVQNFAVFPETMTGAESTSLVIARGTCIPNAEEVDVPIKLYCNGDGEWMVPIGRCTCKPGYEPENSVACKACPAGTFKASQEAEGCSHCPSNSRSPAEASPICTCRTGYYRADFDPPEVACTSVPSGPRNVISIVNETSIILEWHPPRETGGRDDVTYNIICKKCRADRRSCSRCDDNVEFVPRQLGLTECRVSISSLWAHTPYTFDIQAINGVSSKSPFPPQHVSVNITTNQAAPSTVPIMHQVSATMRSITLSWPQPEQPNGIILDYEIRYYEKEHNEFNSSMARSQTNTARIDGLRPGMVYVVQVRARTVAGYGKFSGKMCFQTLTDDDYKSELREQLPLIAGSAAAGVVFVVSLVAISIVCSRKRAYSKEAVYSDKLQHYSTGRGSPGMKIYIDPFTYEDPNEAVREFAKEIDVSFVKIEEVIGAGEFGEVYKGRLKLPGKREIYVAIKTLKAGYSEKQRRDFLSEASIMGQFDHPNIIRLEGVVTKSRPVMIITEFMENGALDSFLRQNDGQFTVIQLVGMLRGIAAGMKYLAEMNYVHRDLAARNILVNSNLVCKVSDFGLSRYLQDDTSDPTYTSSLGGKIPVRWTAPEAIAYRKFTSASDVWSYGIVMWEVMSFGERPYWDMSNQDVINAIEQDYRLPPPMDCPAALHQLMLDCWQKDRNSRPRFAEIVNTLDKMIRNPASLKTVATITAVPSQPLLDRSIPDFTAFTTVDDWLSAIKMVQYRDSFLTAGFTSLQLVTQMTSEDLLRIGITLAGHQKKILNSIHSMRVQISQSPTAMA

EPHA3 = EPHA3 (Homo sapiens, UniProt P29320)
Chain of EPHA3 (P29320 whole entry): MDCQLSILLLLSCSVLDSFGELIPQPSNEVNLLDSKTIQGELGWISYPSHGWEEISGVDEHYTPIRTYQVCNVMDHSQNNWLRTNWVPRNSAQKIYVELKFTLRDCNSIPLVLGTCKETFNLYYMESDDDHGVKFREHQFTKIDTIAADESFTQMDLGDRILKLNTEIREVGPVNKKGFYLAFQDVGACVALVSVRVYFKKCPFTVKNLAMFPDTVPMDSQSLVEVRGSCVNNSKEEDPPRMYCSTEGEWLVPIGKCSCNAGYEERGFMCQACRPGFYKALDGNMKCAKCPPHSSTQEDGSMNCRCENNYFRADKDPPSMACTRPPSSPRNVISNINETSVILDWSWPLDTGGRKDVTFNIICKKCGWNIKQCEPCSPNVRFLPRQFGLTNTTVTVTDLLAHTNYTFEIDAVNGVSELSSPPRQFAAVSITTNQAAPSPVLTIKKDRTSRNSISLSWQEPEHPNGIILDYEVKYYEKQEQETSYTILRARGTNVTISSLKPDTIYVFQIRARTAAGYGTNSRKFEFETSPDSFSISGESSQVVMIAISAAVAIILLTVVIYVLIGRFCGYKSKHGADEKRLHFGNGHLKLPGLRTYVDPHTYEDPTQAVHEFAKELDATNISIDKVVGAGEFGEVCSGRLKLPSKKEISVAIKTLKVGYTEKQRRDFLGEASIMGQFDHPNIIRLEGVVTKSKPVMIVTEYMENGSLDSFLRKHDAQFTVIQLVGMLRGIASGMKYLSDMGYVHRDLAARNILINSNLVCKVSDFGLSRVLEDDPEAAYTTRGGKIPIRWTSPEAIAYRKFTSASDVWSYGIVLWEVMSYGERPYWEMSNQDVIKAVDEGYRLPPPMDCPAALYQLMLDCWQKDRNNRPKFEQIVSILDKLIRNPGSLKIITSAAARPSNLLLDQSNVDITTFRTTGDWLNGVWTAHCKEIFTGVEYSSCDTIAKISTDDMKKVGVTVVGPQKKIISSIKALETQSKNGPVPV

NDR1 = NDR1 (Homo sapiens, UniProt Q15208)
EPHB2 = EPHB2 (Homo sapiens, UniProt P29323)
AurB = AurB (Homo sapiens, UniProt Q96GD4)
Chain of AurB (Q96GD4 whole entry): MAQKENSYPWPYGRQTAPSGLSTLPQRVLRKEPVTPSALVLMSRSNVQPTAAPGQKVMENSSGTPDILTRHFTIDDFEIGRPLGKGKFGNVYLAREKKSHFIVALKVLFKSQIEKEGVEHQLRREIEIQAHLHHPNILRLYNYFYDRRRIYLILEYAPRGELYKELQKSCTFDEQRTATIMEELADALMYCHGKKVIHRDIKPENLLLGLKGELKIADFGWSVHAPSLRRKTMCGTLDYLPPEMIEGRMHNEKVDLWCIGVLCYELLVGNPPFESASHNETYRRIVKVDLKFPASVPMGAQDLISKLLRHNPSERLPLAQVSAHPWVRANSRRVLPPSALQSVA

STK17A = STK17A (Homo sapiens, UniProt Q9UEE5)
DNAPK = DNAPK (Homo sapiens, UniProt P78527)
ACVR2B = ACVR2B (Homo sapiens, UniProt Q13705)
GSG2 = GSG2 (Homo sapiens, UniProt Q8TF76)
PRKG1 = PRKG1 (Homo sapiens, UniProt Q13976)

Chain of TTK (P33981 whole entry): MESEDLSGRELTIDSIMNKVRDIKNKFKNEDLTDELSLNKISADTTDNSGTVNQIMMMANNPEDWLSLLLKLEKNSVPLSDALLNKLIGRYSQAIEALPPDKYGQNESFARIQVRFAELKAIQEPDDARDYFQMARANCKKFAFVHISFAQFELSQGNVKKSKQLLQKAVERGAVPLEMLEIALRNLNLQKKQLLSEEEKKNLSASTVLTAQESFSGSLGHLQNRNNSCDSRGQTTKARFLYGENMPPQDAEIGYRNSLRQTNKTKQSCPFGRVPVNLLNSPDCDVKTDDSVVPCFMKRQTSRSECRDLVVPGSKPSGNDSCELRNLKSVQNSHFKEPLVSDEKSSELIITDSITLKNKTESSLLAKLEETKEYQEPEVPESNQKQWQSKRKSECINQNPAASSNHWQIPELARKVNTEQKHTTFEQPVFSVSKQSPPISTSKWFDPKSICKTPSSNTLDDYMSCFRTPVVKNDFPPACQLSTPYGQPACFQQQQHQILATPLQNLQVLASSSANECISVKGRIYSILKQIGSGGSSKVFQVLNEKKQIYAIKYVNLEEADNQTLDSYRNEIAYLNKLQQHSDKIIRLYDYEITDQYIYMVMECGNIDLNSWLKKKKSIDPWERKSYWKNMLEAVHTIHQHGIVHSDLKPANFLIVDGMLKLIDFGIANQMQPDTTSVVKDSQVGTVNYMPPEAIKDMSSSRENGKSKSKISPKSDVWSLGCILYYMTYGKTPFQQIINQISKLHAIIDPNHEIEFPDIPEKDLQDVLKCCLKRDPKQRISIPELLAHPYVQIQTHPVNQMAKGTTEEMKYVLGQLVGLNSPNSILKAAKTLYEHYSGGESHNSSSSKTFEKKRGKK
Chain of MKK4 (P45985 whole entry): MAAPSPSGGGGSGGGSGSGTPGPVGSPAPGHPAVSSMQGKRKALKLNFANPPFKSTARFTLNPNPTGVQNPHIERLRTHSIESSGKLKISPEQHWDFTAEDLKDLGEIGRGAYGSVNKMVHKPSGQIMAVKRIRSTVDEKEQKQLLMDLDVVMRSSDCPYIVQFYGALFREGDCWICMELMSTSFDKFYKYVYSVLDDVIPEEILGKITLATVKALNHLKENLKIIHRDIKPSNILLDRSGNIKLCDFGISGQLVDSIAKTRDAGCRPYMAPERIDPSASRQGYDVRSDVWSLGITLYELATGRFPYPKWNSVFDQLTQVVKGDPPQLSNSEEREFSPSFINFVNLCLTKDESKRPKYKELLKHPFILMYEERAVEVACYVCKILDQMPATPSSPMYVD
Chain of EPHB4 (P54760 whole entry): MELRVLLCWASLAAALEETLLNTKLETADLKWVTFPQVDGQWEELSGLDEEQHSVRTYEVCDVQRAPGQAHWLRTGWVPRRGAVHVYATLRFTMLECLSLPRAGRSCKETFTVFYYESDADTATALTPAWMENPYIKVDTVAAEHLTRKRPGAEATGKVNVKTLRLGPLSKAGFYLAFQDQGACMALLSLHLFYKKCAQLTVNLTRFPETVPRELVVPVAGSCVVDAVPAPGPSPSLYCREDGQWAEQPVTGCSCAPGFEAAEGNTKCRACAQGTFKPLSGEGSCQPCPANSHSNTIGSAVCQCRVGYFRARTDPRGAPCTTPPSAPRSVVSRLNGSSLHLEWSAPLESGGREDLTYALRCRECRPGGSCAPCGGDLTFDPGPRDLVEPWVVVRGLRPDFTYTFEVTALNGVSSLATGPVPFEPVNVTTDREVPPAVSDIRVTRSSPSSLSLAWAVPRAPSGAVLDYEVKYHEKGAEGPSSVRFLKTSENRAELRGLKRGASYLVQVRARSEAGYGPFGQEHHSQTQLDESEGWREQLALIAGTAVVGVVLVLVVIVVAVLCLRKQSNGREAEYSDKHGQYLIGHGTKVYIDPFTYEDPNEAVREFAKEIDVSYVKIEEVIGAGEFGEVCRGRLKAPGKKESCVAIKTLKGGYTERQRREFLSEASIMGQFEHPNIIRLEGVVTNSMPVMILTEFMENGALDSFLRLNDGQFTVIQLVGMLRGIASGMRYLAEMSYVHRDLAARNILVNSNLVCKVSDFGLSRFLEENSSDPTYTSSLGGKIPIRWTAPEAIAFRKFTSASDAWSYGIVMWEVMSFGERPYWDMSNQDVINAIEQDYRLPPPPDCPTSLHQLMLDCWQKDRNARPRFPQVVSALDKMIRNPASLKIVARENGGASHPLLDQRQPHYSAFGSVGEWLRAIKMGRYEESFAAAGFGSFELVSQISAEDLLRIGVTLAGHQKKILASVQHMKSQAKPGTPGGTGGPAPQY
Chain of CLK2 (P49760 whole entry): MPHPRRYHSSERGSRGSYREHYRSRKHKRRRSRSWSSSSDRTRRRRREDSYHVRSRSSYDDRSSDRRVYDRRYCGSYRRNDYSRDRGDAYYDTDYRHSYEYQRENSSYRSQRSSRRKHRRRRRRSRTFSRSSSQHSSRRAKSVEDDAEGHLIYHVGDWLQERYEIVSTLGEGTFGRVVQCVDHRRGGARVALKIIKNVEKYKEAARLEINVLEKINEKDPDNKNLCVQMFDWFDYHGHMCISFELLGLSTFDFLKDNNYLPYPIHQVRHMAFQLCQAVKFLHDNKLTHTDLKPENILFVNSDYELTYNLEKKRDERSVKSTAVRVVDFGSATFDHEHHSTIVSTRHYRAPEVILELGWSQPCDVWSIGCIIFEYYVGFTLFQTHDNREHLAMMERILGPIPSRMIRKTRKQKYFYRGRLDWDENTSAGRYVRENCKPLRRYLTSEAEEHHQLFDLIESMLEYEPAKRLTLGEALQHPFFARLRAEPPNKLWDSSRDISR

## O=C1NCCCCCNc2nc(c3ccccc3n2)Nc2cc1[nH]n2 [21c, (Z)-3^1H-2,5,11-triaza-1(4,2)-quinazolina-3(3,5)-pyrazolacycloundecaphan-4-one]
EPHB4
  21c Remaining activity, percent of control [%]: 86.1%
KIT
  21c Remaining activity, percent of control [%]: 69.4%
TTK
  21c Remaining activity, percent of control [%]: 97.7%
FES
  21c Remaining activity, percent of control [%]: 100.7%
DAPK2
  21c Remaining activity, percent of control [%]: 100.3%
MKK4
  21c Remaining activity, percent of control [%]: 127.3%
AXL
  21c Remaining activity, percent of control [%]: 80.2%
CLK2
  21c Remaining activity, percent of control [%]: 64.6%
GRK5
  21c Remaining activity, percent of control [%]: 103.8%
BMPR1B
  21c Remaining activity, percent of control [%]: 80.1%
ACVR1
  21c Remaining activity, percent of control [%]: 81.0%
RPS6KB1
  21c Remaining activity, percent of control [%]: 86.2%
PAK3
  21c Remaining activity, percent of control [%]: 103.3%
ACK1
  21c Remaining activity, percent of control [%]: 79.8%
ERK7
  21c Remaining activity, percent of control [%]: 90.2%
MAP4K4
  21c Remaining activity, percent of control [%]: 81.0%
CLK3
  21c Remaining activity, percent of control [%]: 88.6%
ASK1
  21c Remaining activity, percent of control [%]: 97.7%
MAP4K5
  21c Remaining activity, percent of control [%]: 78.8%
EPHA1
  21c Remaining activity, percent of control [%]: 99.3%
MAP3K9
  21c Remaining activity, percent of control [%]: 95.7%
EPHB1
  21c Remaining activity, percent of control [%]: 77.1%
EPHA3
  21c Remaining activity, percent of control [%]: 97.7%
NDR1
  21c Remaining activity, percent of control [%]: 86.7%
EPHB2
  21c Remaining activity, percent of control [%]: 100.1%
AurB
  21c Remaining activity, percent of control [%]: 83.9%
STK17A
  21c Remaining activity, percent of control [%]: 103.5%
DNAPK
  21c Remaining activity, percent of control [%]: 100.7%
ACVR2B
  21c Remaining activity, percent of control [%]: 100.5%
GSG2
  21c Remaining activity, percent of control [%]: 108.1%
PRKG1
  21c Remaining activity, percent of control [%]: 94.8%
